{
  "source": "patent US6313309A",
  "about": "“4-thionaphthyl--1H--imidazoles which are usefulα22-adrenoceptoR agonists/ antagonists” (Ortho-McNeil Pharmaceutical, Inc., priority 1999, dated 2001)",
  "key": {"[1]": {"biological_target": "T1, Alpha-2D Adrenergic Receptor (Rattus norvegicus, UniProt P22909)", "T1 construct": "aliquots of the synaptic membrane fraction; from tissue; host or cells: rat cerebral cortex, synaptic membrane fraction (male Wistar rats)", "T1 sequence (P22909 1-465)": "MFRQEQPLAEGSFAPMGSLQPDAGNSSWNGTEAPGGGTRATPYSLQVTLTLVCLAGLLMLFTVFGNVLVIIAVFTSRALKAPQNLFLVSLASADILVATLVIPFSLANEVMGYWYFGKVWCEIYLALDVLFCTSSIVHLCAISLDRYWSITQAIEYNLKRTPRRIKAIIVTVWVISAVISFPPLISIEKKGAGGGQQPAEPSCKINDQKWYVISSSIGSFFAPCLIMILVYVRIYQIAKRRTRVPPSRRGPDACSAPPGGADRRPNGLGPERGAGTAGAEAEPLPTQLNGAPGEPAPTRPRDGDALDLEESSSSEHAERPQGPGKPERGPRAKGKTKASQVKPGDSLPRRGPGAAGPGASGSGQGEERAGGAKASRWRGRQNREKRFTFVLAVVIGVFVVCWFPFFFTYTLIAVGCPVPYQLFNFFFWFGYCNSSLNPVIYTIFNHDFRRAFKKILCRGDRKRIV", "assay": "Alpha-2D Adrenergic Receptor Binding Assay (3H-para-aminoclonidine, rat cortex membranes)", "details": "rat cortex synaptic membranes", "protocol": "Male, Wistar rats (150-250 g, VAF, Charles River, Kingston, N.Y.) are sacrificed by cervical dislocation and their brains removed and placed immediately in ice cold HEPES buffered sucrose. The cortex is dissected out and homogenized in 20 volumes of HEPES sucrose in a Teflon™-glass homogenizer. The homogenate is centrifuged at 1000 g for 10 min, and the resulting supernatant centrifuged at 42,000 g for 10 min. The resulting pellet is resuspended in 30 volumes of 3 mM potassium phosphate buffer, pH 7.5, preincubated at 25° C. for 30 min and recentrifuged. The resulting pellet is resuspended as described above and used for the receptor binding assay. Incubation is performed in test tubes containing phosphate buffer, 2.5 mM MgCl2, aliquots of the synaptic membrane fraction, the ligand ^3 H-para-aminoclonidine and test drug at 25° C. for 20 min. The incubation is terminated by filtration of the tube contents through glass fiber filter sheets. Following washing of the sheets with 10 mM HEPES buffer, the adhering radioactivity is quantified by liquid scintillation spectrometry.\nBinding of the test drug to the receptor is determined by comparing the amount of radiolabeled ligand bound in control tubes without drug to the amount of radiolabeled ligand bound in the presence of the drug. Dose-response data are analyzed with LIGAND, a nonlinear curve fitting program designed specifically for the analysis of ligand binding data. This assay is described by Simmons, R. M. A., and Jones, D. J., Binding of [^3 H-]prazosin and [^3 H]p-aminoclonidine to (α-Adrenoceptors in Rat Spinal Cord, Brain Research 445:338-349, 1988."}, "[2]": {"test_system": "abdominal constriction response", "assay": "Mouse Acetylcholine Bromide-Induced Abdominal Constriction Assay (MAIT)", "assay_type": "in vivo", "details": "30 mg/kg po; 5.5 mg/kg i.p. acetylcholine bromide 30 minutes later; ten minute observation", "protocol": "The mouse acetylcholine bromide-induced abdominal constriction assay, is described by Collier et al. in Brit. J. Pharmacol. Chem. Ther., 32: 295-310, 1968, with minor modifications was used to assess analgesic potency of the compounds herein. The test drugs or appropriate vehicle were administered orally (p.o.) and 30 minutes later the animal received an intraperitoneal (i.p.) injection of 5.5 mg/kg acetylcholine bromide (Matheson, Coleman and Bell, East Rutherford, N.J.). The mice were then placed in groups of three into glass bell jars and observed for a ten minute observation period for the occurrence of an abdominal constriction response (defined as a wave of constriction and elongation passing caudally along the abdominal wall, accompanied by a twisting of the trunk and followed by extension of the hind limbs). The percent inhibition of this response to a nociceptive stimulus (equated to % analgesia) was calculated as follows: The % Inhibition of response, i.e., % analgesia is equal to the difference between the number of control animals responding and the number of drug-treated animals responding times 100 divided by the number of control animals responding.\nAt least 15 animals were used for control and in each of the drug treated groups. At least three doses were used to determine each dose response curve and ED50 (that dose which would produce 50% analgesia). The ED50 values and their 95% fiducial limits were determined by a computer assisted probit analysis."}, "[3]": {"details": "25° C., 20 min, read-out: α-2D Binding Ki"}},
  "note": "Read-outs that look alike come from different tables or passages of the source.",
  "data": [
    {"compound": "C1=C(c2c[nH]cn2)c2ccsc2CC1", "note": "[Cp-2, 4-(4-Imidazoyl)-6,7-dihydrothianapthene Perchlorate]", "values": [
      {"measurement": "Ki", "setting": "[1]; [3]", "result": 1.5, "unit": "nM"},
      {"measurement": "MAIT Activity % Inhibition", "setting": "[2]", "result": 100, "unit": "%"}
    ]},
    {"compound": "Cc1sc(C)c2c1CCCC2c1c[nH]cn1.O=C(O)/C=C\\C(=O)O", "note": "(stereo not shown) [Cp-5, 4-(1,3-Dimethyl-4,5,6,7-tetrahydrobenzo[c]thiophene-4-yl)-1H-imidazole (Z)-2-Butenedioate]", "values": [
      {"measurement": "Ki", "setting": "[1]; [3]", "result": 2.9, "unit": "nM"},
      {"measurement": "MAIT Activity % Inhibition", "setting": "[2]", "result": 93, "unit": "%"}
    ]},
    {"compound": "C1=C(c2c[nH]cn2)c2sccc2CC1", "note": "[Cp-7]", "values": [
      {"measurement": "Ki", "setting": "[1]; [3]", "result": 3, "unit": "nM"},
      {"measurement": "MAIT Activity % Inhibition", "setting": "[2]", "result": 60, "unit": "%"}
    ]},
    {"compound": "c1cc(-c2c[nH]cn2)c2ccsc2c1", "note": "[Cp-1, 4-(Thionaphth-4-yl)-1H-imidazole (Z)-2-butenedioate]", "values": [
      {"measurement": "Ki", "setting": "[1]; [3]", "result": 2.6, "unit": "nM"},
      {"measurement": "MAIT Activity % Inhibition", "setting": "[2]", "result": 73, "unit": "%"}
    ]},
    {"compound": "c1nc(C2CCCc3ccsc32)c[nH]1", "note": "(stereo not shown) [Cp-6]", "values": [
      {"measurement": "Ki", "setting": "[1]; [3]", "result": 0.35, "unit": "nM"}
    ]},
    {"compound": "c1nc(C2CCCc3sccc32)c[nH]1", "note": "(stereo not shown) [Cp-3, 4-(4-Imidazoyl)-4,5,6,7-tetrahydrothianapthene Perchlorate]", "values": [
      {"measurement": "Ki", "setting": "[1]; [3]", "result": 0.56, "unit": "nM"},
      {"measurement": "MAIT Activity % Inhibition", "setting": "[2]", "result": 100, "unit": "%"}
    ]},
    {"compound": "Cc1sc(C)c2c1CCC=C2c1c[nH]cn1", "note": "[Cp-4, 4-(1,3-Dimethyl-6,7-dihydrobenzo[c]thiophene-4-yl)-1H-imidazole(Z)-2-Butenedioate]", "values": [
      {"measurement": "Ki", "setting": "[1]; value in parentheses, not explained, read-out: α-2D Binding Ki (second value, in parentheses)", "result": 1.2, "unit": "nM"},
      {"measurement": "MAIT Activity % Inhibition", "setting": "[2]", "result": 40, "unit": "%"}
    ]}
  ]
}
